Data: patent US20150272928A1, “INDOLE DERIVATIVES” (UNIVERSITY OF CENTRAL LANCASHIRE, priority 2012, published 2015)
“Also recorded” adds a separate entry of the source.

Columns and labels:
[1] = system: U87MG cells; assay: MTS assay, U87MG glioma cell line; format: cell-based
Procedure: (§1) 1321N1 cells were maintained in Dulbeccos's Modified Eagle's Medium (DMEM) supplemented with 10% (v/v) foetal bovine serum (FBS) and 2 mM L-glutamine, while the U87MG cell line was maintained in Essential Minimum Eagle Medium (EMEM) supplemented with 10% (v/v) FBS, 2 mM L-glutamine, 1 mM sodium pyruvate and 1% (v/v) non-essential amino acids (NEAA) (Lonza, UK) in a 37° C. humidified incubator supplied with 5% CO2. The 1321N1 and the U87MG cells were trypsinized and cultured overnight at a cell density of 3500 cells/200 μl and 4000 cells/200 μl respectively in 96-well microtitre plates (Sarstedt, UK). The following day when the cells looked 50-60% confluent, each concentration of the commercial drugs and novel compounds mentioned above were added in quadruplicates and left for incubation for 48 hours. After 48 hours, 20 μl of the pre-warmed MTS reagent (Promega, UK) was added to each of the wells and the 96-well plates were incubated at 37° C. humidified incubator supplied with 5% CO2 for 60 min. At the end of 60 min, the absorbance was recorded at 490 nm using a Tecan GENios Pro® microplate reader. The concentration of compound that inhibits 50% of cell growth (IC50) compared to untreated vehicle controls containing ≦0.5% absolute ethanol was calculated by nonlinear regression analysis. Absolute ethanol was used in the vehicle controls as indole 4 was dissolved in absolute ethanol.

[2] = system: 1321N1 cells; assay: MTS assay, 1321N1 glioma cell line; format: cell-based; settings: 48 h; for activity against the 1321N1 cell line (in words): MTS assay
Procedure: as §1

[3] = system: 1321N1 cells; assay: Reactive oxygen species detection assay (carboxy-H2DCFDA, flow cytometry), 1321N1 cells; format: cell-based; settings: for ROS induction / oxidative stress: shift of H2DCFDA fluorescence signal compared to control: 1321N1, 500 μM, 1 h, flow cytometry, positive control TBHP 100 μM
Description: (§2) The inventors hypothesised that the active indoles were acting through a radical-based mechanism, which was most likely related to the generation of reactive oxygen species (ROS).^[6] As such, the inventors chose the Image-iT™ LIVE Green Reactive Oxygen Species Detection Kit from Invitrogen Ltd, UK, which is able to detect reactive oxygen species (ROS) in live cells, to assess selected indoles. Oxidatively stressed cells, when labeled with the carboxy-H2DCFDA dye provided, should generate fluorescence which is detectable using a confocal microscope and flow cytometry. Various assays were therefore performed in accordance with the following protocols.
(§3) 1321N1 cells were maintained in Dulbeccos's Modified Eagle's Medium (DMEM) supplemented with 10% (v/v) foetal bovine serum (FBS) and 2 mM L-glutamine, while the U87MG cell line was maintained in Essential Minimum Eagle Medium (EMEM) supplemented with 10% (v/v) FBS, 2 mM L-glutamine, 1 mM sodium pyruvate and 1% (v/v) non-essential amino acids (NEAA) (Lonza, UK) in a 37° C. humidified incubator supplied with 5% CO2. The 1321N1 and the U87MG cells were trypsinized and cultured overnight at a cell density of 10^4 cells/well/ml and were seeded in 6 well plates (BD Biosciences, UK) and were allowed to attach overnight. 2 ml of this cell suspension was added into each well resulting into a final concentration of 20,000 cells/well. On the day of experiment, cells were labelled with sufficient amount of 25 μM carboxy-H2DCFDA dye and were incubated for 30 min at 37° C., protected from light. Cells were then treated with 500 μM of indole 4 and positive control [tert-butyl hydroperoxide (TBHP)](100 μM) and negative control (indole 2) (500 μM) for 60 mins. Cells were gently washed with Hank[…]s balanced salt solution (HBSS) warm buffer three times and then trypsinized, centrifuged and resuspended in 300 μl PBS. Cells were filtered through cell strainer caps (35 μm mesh) to obtain a single cell suspension and analysed using a FACSAria flow cytometer (BD Biosciences). The untreated vehicle controls contained ≦0.5% absolute ethanol and DMSO as indole 4 was dissolved in absolute ethanol while TBHP and indole 2 were dissolved in DMSO.
(§4) In the event, to confirm and quantify the amount of fluorescence (due to ROS) produced, glioma cell lines 1321N1 and U87MG were seeded in separate 6 well plates and were left overnight to attach. On the day of the experiment the carboxy-H2DCFDA dye was added to the cells which were incubated for 30 min in the dark. Indoles 2, 3, 4 and 7 (500 μM) were then added, in separate experiments, and left for 1 h incubation. Cells were thoroughly washed at each step to prevent background staining and they were imaged immediately after incubation.

[4] = system: U87MG cells; assay: Reactive oxygen species detection assay (carboxy-H2DCFDA, flow cytometry), U87MG cells; format: cell-based; settings: 500 μM, 1 h, positive control TBHP 100 μM
Description: as §2, §3, §4

[5] = Stability under acidic conditions; format: physicochemical
[6] = system: 1321N1 cells; assay: MTS assay, 1321N1 glioma cell line; format: cell-based; settings: 1321N1, co-treatment with ascorbic acid
[7] = system: primary cell culture (IN859); assay: IC50 against primary cell culture IN859 from a glioblastoma multiforme patient biopsy; format: cell-based; settings: cells from a biopsy from a glioblastoma multiforme patient
Description: Based on these preliminary results the inventors were keen to discover if the effects would also be observed against a primary cell culture (IN859) from cells obtained from a biopsy from a glioblastoma multiforme patient.

[8] = system: 1321N1 cells; assay: Acridine orange assay of acidic vesicular organelle (AVO) formation, 1321N1 cells; format: cell-based; settings: 1321N1, 500 μM, 1 h, flow cytometry
Procedure: (§5) 1321N1 cells were maintained in Dulbeccos's Modified Eagle's Medium (DMEM) supplemented with 10% (v/v) foetal bovine serum (FBS) and 2 mM L-glutamine, while the U87MG cell line was maintained in Essential Minimum Eagle Medium (EMEM) supplemented with 10% (v/v) FBS, 2 mM L-glutamine, 1 mM sodium pyruvate and 1% (v/v) non-essential amino acids (NEAA) (Lonza, UK) in a 37° C. humidified incubator supplied with 5% CO2. The 1321N1 and the U87MG cells were trypsinized and cultured overnight at a cell density of 10^4 cells/well/ml and were seeded in 6 well plates (BD Biosciences, UK) and were allowed to attach overnight. 2 ml of this cell suspension was added into each well resulting into a final concentration of 20,000 cells/well. After 24 h of incubation, cells were treated with 500 μM of indole 4 for 60 min. After 60 min incubation with the compound the cells were stained with 3 μM acridine orange and incubated for 15 min at 37° C., protected from light. […] Cells were filtered through cell strainer caps (35 μm mesh) to obtain a single cell suspension and analysed using a FACSAria flow cytometer (BD Biosciences). […]
(§6) The glioma cells were seeded in 6 well plates and were left overnight to attach. The cells were then treated with indole 4 for 1 h, stained with acridine orange for 15 min, and were analysed by flow cytometry.

[9] = system: U87MG cells; assay: Acridine orange assay of acidic vesicular organelle (AVO) formation, U87MG cells; format: cell-based; settings: 500 μM, 1 h, flow cytometry
Procedure: as §5, §6

[10] = Homo sapiens, U-87 MG, 48 h, average and standard deviation of four repeats, dash = IC50 value not reached
[11] = Homo sapiens, 1321-N1, average and standard deviation of four repeats, dash = IC50 value not reached
[12] = 48 h, average and standard deviation of four repeats, dash = IC50 value not reached
[13] = average and standard deviation of four repeats, dash = IC50 value not reached

SMILES | IC50 [1, 10] | IC50 [2, 11] | activity against the 1321N1 cell line (in words) [2] | ROS induction / oxidative stress: shift of H2DCFDA fluorescence signal compared to control [3] | ROS induction / oxidative stress: shift of H2DCFDA fluorescence signal compared to control [4] | also measured
OCc1c[nH]c2ccccc12 [Compound 1, (1H-indol-3-yl)methanol] | 585 ± 2 µM | 374 ± 2 µM | active | – | – | –
c1ccc(-c2cc3ccccc3[nH]2)cc1 [Compound 2, 2-phenyl-1H-indole] | > 400 µM | – | not able to inhibit the growth | no shift was observed | no shift was observed | MTS assay IC50 values U87MG [1, 12]: does not reach its IC50; inhibition at 400 µM ([1]; Homo sapiens, U-87 MG, U87MG, at 400 μM, 48 h, read-out: maximum growth inhibition): 7%; MTS assay IC50 values 1321N1 [2, 13]: does not reach its IC50
OCc1c(-c2ccccc2)[nH]c2ccccc12 [Compound 3, (2-phenyl-1H-indol-3-yl)methanol] | 176 ± 1 µM | 111 ± 1 µM | active | shift of the fluorescence signal; also recorded: to a greater level than the positive control | shift of the fluorescence signal; also recorded: to a greater level than the positive control | stability under acidic conditions [5]: slightly unstable
Oc1ccccc1-c1cc2ccccc2[nH]1 [Compound 4, 2-(1H-indol-2-yl)phenol] | 379 ± 4 µM | 445 ± 4 µM | active | shift of the fluorescence signal; also recorded: to a greater level than the positive control | shift of the fluorescence signal; also recorded: to a greater level than the positive control | cell viability in the presence of ascorbic acid [6]: cell viability was unaffected; IC50 [7]: 398 ± 3 µM; level of fluorescence (ROS) on co-treatment with ascorbic acid ([3]; 1321N1, indole 4 500 μM plus ascorbic acid 100 μM, data not shown): less than the vehicle control cells alone; cell viability in the presence of ascorbic acid ([1]; MTS assay, U87MG, co-treatment with ascorbic acid): cell viability was unaffected; AVO formation (acridine orange red fluorescence) [8]: increased amount of red fluorescence; AVO formation (acridine orange red fluorescence) [9]: increased amount of red fluorescence
O=Cc1c(-c2ccccc2)[nH]c2ccccc12 [Compound 6, 2-phenyl-1H-indole-3-carbaldehyde] | – | – | inactive | – | – | activity against the U87MG cell line (in words) ([1]; MTS assay, 48 h): inactive
COc1ccccc1-c1cc2ccccc2[nH]1 [Compound 7, 2-(2-methoxyphenyl)-1H-indole, reference compound] | – | – | inactive | no shift was observed | no shift was observed | activity against the U87MG cell line (in words) ([1]; MTS assay, 48 h): inactive
N.N.[Cl][Pt][Cl] [cisplatin] | – | – | active | – | – | IC50 [1, 12]: 310 ± 4 µM; IC50 [2, 13]: 11 ± 2 µM
